Patent US12696900B2, “Crop enhancement” (SYNGENTA CROP PROTECTION AG, priority 2020, dated 2026)

Legend:
[1] = system: Corn seeds (var. NK Falkone); test: Corn germination test (24 well plates, kinetic analysis of germination); assay type: in vivo; conditions: for Plateau of Germination (total percentage of germinated seeds), Sign. / Time taken to reach 50% germination of corn, Sign. / Uniformity of Germination (slope of the curve), Sign.: significance vs untreated, p<0.05, ns=not significant; for Plateau of Germination (total percentage of germinated seeds), total % of germinated seeds / Time taken to reach 50% germination of corn, Relative T50 / Uniformity of Germination (slope of the curve), Relative slope: untreated = 100
Method: Corn seeds (var. NK Falkone, Syngenta Seeds SAS, St. Sauveur, France) were sorted by size using a sieve to eliminate round seeds. The corn seeds were placed in 24 well plates (1 seed per well; each plate was considered as one experimental unit or replicate). Germination was initiated by the addition of 250 μl of distilled water containing 0.5% dimethyl sulfoxide (DMSO) to each well (with isocycloseram present at a concentration of either 1, 5, 25 or 125 μM). 8 replicates (i.e. 8 plates) were used for each treatment characterisation. The plates were sealed using seal foil (Polyolefin Art. Nr. 900320) from HJ-BIOANALYTIK. All plates were placed in a climatic chamber at either 15° C. or 23° C., with 60% Relative Humidity. The experiment was laid out in a completely randomized design. Germination was followed over time by taking photographs at different time points. Image analysis was performed automatically with a macro which was developed using the Image J software. A kinetic analysis of germination was carried out by fitting a trend curve. Three parameters were calculated from the trend curve: the T50 (time taken for 50% germination; related to speed of germination); the slope of the curve (the uniformity of germination) and the plateau (the total percentage of germinated seeds). […] The results are expressed in terms of percentage in comparison to the control (untreated seeds) for each temperature group respectively. The results were analysed statistically to highlight significant differences (p<0.05). (Key: Sign.=significance; ns=not significant)
All three parameters have a high agronomical relevance. Significant differences between treated seeds and untreated control are given at p<0.05 (Anova). T50 corresponds to the time needed for half of the seed population to germinate; lower values indicate faster germination. Slope indicates how synchronous the germination of the seed population is; values greater than 100 indicate a steeper curve. The steeper the curve, the better and more uniform the germination is. […] At the two highest rates, the speed of germination (T50) was faster at both temperatures, indicating a positive impact on germination speed.

[2] = system: Wheat seeds (winter wheat variety Syllon); test: Wheat germination test under increased salinity (salt stress); assay type: in vivo; conditions: for Time taken to reach 50% germination of wheat, Sign. / Time taken to reach 50% germination of wheat, Relative T50: increased salinity, 12.5 mM NaCl solution, 23° C.; for Time taken to reach 50% germination of wheat, Sign.: significance vs untreated, p<0.05; for Time taken to reach 50% germination of wheat, Relative T50: untreated = 100
Method: Wheat seeds (winter wheat variety Syllon, Syngenta Seeds) were placed in 24 well plates (1 seed per well, each plate was considered as one experimental unit or replicate). […] Subsequently, a salt solution was prepared at this concentration and spiked with the test compound at different rates as shown below in Table 3, and the germination test was repeated under salt stress. Eight replicates (i.e. 8 plates) were used for each treatment. Plates were sealed with seal foil (Polyolefin Art. Nr. 900320) from HJ-BIOANALYTIK. All plates were placed in a climatic chamber at 23° C. with 70% Relative Humidity. The experiment was laid out in a completely randomized design. Germination was followed over time by taking photographs at different time points. Image analysis was performed automatically with a macro which was developed using the Image J software. A kinetic analysis of germination was carried out by fitting a trend curve. Three parameters were calculated from the trend curve: the T50 (time taken for 50% germination; speed of germination); the slope of the curve (the uniformity of germination) and the plateau (the total percentage of germinated seeds). […] The results are expressed in terms of percentage in comparison to the check (untreated seeds) and the results are analysed statistically to highlight significant differences (p<0.05). (Key: Sign.=significance)
T50 corresponds to the time needed for half of the seed population to germinate and is a germination parameter of high agronomical relevance. Significant differences between treated seeds and untreated control are given at p<0.05 (Anova). Lower values indicate faster germination.

[3] = 15° C. (cold conditions), isocycloseram 1 μM
[4] = 15° C. (cold conditions), isocycloseram 5 μM
[5] = 15° C. (cold conditions), isocycloseram 25 μM
[6] = 15° C. (cold conditions), isocycloseram 125 μM
[7] = 23° C. (normal conditions), isocycloseram 1 μM
[8] = 23° C. (normal conditions), isocycloseram 5 μM
[9] = 23° C. (normal conditions), isocycloseram 25 μM
[10] = 23° C. (normal conditions), isocycloseram 125 μM

SMILES: CCN1OCC(NC(=O)c2ccc(C3=NOC(c4cc(Cl)c(F)c(Cl)c4)(C(F)(F)F)C3)cc2C)C1=O (stereo not shown) [Isocycloseram, isocycloseram]
- Plateau of Germination (total percentage of germinated seeds), Sign. [1, 3]: ns
- Time taken to reach 50% germination of corn, Sign. [1, 3]: ns
- Uniformity of Germination (slope of the curve), Sign. [1, 3]: ns
- Plateau of Germination (total percentage of germinated seeds), total % of germinated seeds [1, 3]: 103 percentage in comparison to the control
- Time taken to reach 50% germination of corn, Relative T50 [1, 3]: 99.67 percentage in comparison to the control
- Uniformity of Germination (slope of the curve), Relative slope [1, 3]: 100 percentage in comparison to the control
- Plateau of Germination (total percentage of germinated seeds), Sign. [1, 4]: higher
- Time taken to reach 50% germination of corn, Sign. [1, 4]: ns
- Uniformity of Germination (slope of the curve), Sign. [1, 4]: ns
- Plateau of Germination (total percentage of germinated seeds), total % of germinated seeds [1, 4]: 105 percentage in comparison to the control
- Time taken to reach 50% germination of corn, Relative T50 [1, 4]: 101.73 percentage in comparison to the control
- Uniformity of Germination (slope of the curve), Relative slope [1, 4]: 98 percentage in comparison to the control
- Plateau of Germination (total percentage of germinated seeds), Sign. [1, 5]: higher
- Time taken to reach 50% germination of corn, Sign. [1, 5]: Faster
- Uniformity of Germination (slope of the curve), Sign. [1, 5]: more
- Plateau of Germination (total percentage of germinated seeds), total % of germinated seeds [1, 5]: 106 percentage in comparison to the control
- Time taken to reach 50% germination of corn, Relative T50 [1, 5]: 93.1 percentage in comparison to the control
- Uniformity of Germination (slope of the curve), Relative slope [1, 5]: 233 percentage in comparison to the control
- Plateau of Germination (total percentage of germinated seeds), Sign. [1, 6]: higher
- Time taken to reach 50% germination of corn, Sign. [1, 6]: Faster
- Uniformity of Germination (slope of the curve), Sign. [1, 6]: more
- Plateau of Germination (total percentage of germinated seeds), total % of germinated seeds [1, 6]: 105 percentage in comparison to the control
- Time taken to reach 50% germination of corn, Relative T50 [1, 6]: 90.61 percentage in comparison to the control
- Uniformity of Germination (slope of the curve), Relative slope [1, 6]: 191 percentage in comparison to the control
- Plateau of Germination (total percentage of germinated seeds), Sign. [1, 7]: ns
- Time taken to reach 50% germination of corn, Sign. [1, 7]: Slower
- Uniformity of Germination (slope of the curve), Sign. [1, 7]: less
- Plateau of Germination (total percentage of germinated seeds), total % of germinated seeds [1, 7]: 103.63 percentage in comparison to the control
- Time taken to reach 50% germination of corn, Relative T50 [1, 7]: 107.32 percentage in comparison to the control
- Uniformity of Germination (slope of the curve), Relative slope [1, 7]: 80.22 percentage in comparison to the control
- Plateau of Germination (total percentage of germinated seeds), Sign. [1, 8]: ns
- Time taken to reach 50% germination of corn, Sign. [1, 8]: Slower
- Uniformity of Germination (slope of the curve), Sign. [1, 8]: ns
- Plateau of Germination (total percentage of germinated seeds), total % of germinated seeds [1, 8]: 103.63 percentage in comparison to the control
- Time taken to reach 50% germination of corn, Relative T50 [1, 8]: 105.17 percentage in comparison to the control
- Uniformity of Germination (slope of the curve), Relative slope [1, 8]: 93.8 percentage in comparison to the control
- Plateau of Germination (total percentage of germinated seeds), Sign. [1, 9]: higher
- Time taken to reach 50% germination of corn, Sign. [1, 9]: Faster
- Uniformity of Germination (slope of the curve), Sign. [1, 9]: more
- Plateau of Germination (total percentage of germinated seeds), total % of germinated seeds [1, 9]: 105.39 percentage in comparison to the control
- Time taken to reach 50% germination of corn, Relative T50 [1, 9]: 95.22 percentage in comparison to the control
- Uniformity of Germination (slope of the curve), Relative slope [1, 9]: 133.81 percentage in comparison to the control
- Plateau of Germination (total percentage of germinated seeds), Sign. [1, 10]: ns
- Time taken to reach 50% germination of corn, Sign. [1, 10]: Faster
- Uniformity of Germination (slope of the curve), Sign. [1, 10]: more
- Plateau of Germination (total percentage of germinated seeds), total % of germinated seeds [1, 10]: 100.7 percentage in comparison to the control
- Time taken to reach 50% germination of corn, Relative T50 [1, 10]: 92.47 percentage in comparison to the control
- Uniformity of Germination (slope of the curve), Relative slope [1, 10]: 176.64 percentage in comparison to the control
- changes in germination rate and uniformity (corn) ([1]; isocycloseram 1, 5, 25 and 125 μM, 15° C. or 23° C., especially under the colder conditions and higher concentrations): significant changes in germination rate and uniformity
- effect on corn seed germination kinetics ([1]; low temperature (15° C.)): consistent effect
- effect on wheat seed germination kinetics ([2]; increased salinity (salt stress)): consistent effect
- Time taken to reach 50% germination of wheat, Sign. ([2]; isocycloseram 1 μM): Faster
- Time taken to reach 50% germination of wheat, Relative T50 ([2]; isocycloseram 1 μM): 95.27 percentage in comparison to the check
- Time taken to reach 50% germination of wheat, Sign. ([2]; isocycloseram 5 μM): Faster
- Time taken to reach 50% germination of wheat, Relative T50 ([2]; isocycloseram 5 μM): 94.70 percentage in comparison to the check
- Time taken to reach 50% germination of wheat, Sign. ([2]; isocycloseram 25 μM): Faster
- Time taken to reach 50% germination of wheat, Relative T50 ([2]; isocycloseram 25 μM): 93.07 percentage in comparison to the check
- changes in germination speed (wheat) ([2]; isocycloseram 1, 5, and 25 μM, salt stress, 12.5 mM NaCl): significant changes in germination speed
